Data: patent publication US9687529B2, “Method of controlling coagulation” (Duke University, priority 2011, dated 2017)
“Also recorded” adds a separate entry of the source.

How the values were obtained:
[1] = tested on: fibrin deposition on oxygenator membrane; test: Oxygenator membrane scanning electron microscopy; design: species or system human; conditions: FIG. 25 doses: UFH 5 U/mL, 9.3T 1 μM, 11F7T 2 μM, R9D-14T 5 μM, 11F7T 0.5 μM+R9D-14T 5 μM
Procedure: After 2 hours of circulation (or until there was visible clot formation), the minicircuit was washed with three volumes (approximately 60 mL) of PBS at a flow rate of 50 mL/min. The oxygenator membrane was removed with forceps, washed with gentle rocking in PBS for approximately 30 sec, then removed and blotted. Three pieces approximately 10 mm×10 mm were excised from different areas of the membrane with a clean razor blade. The membrane pieces were fixed overnight in PBS with 4% formaldehyde and 2% glutaraldehyde, washed two times with PBS, then dehydrated in an ethanol gradient (30% to 100%). The membranes were subsequently submerged in tetramethylsilane (TMS) for 10 min, then removed and placed in a desiccator overnight. Desiccated membrane specimens measuring approximately 10 mm×7 mm were affixed with double sided tape to circular metal stubs approximately 14 mm in diameter. The specimens were gold sputter coated in a Denton Vacuum Desk IV® (Denton Vacuum LLC, Moorestown, N.J.) according to the manufacturer's instructions. The scanning electron microscopic (SEM) images were obtained with a FEI XL 30 FE SEM (FEI, Hillsboro, Oreg.).

[2] = tested on: thrombin generation in normal human platelet poor plasma; test: Calibrated automated thrombography (CAT); format: biochemical
Procedure: Normal human platelet poor plasma (80 μL) was mixed with aptamer(s) (10 μL) in an Immunolon 2HB U Bottom Mictrotiter 96-well plate (Thermo Labsystems, Franklin, Mass.) and incubated at 37° C. for 5 min. PPP reagent (Diagnostica Stago, Parsippany, N.J.) (either 1 ρM or 5 ρM TF, 20 μL, Diagnostica Stago) was added, and the mixture was incubated at 37° C. for another 5 min. FluCa (Diagnostica Stago) (10 μL) was added to initiate the assay and thrombin generation was measured for 60 minutes at 37° C. with a Fluoroskan Ascent fluorometer (ThermoLabsystem, Helsinki, Finland) according to the manufacturer's instructions. The amount of thrombin generated was quantified by comparison to an assay with thrombin calibrator reagent (Diagnostica Stago) that has a known activity toward the fluorogenic substrate. The lag time, peak amount of thrombin generated, and endogenous thrombin potential (ETP) were automatically calculated by the Thrombinoscope software (Thrombinoscope BV, the Netherlands).
Thrombin is the final protease formed in the coagulation cascade, and the rate of thrombin generation and the total amount of thrombin generated is associated with blood clot formation and stability (Wolberg, Blood Rev 21:131-42 (2007)). To gain more information about the impact of aptamer anticoagulation on the kinetics of thrombin generation, the individual aptamers were analyzed with calibrated automated thrombography (CAT). The CAT assay measures real-time thrombin generation in plasma by monitoring cleavage of a thrombin-specific fluorogenic substrate in response to TF stimulation (Heruker et al, Pathophysiol Haemost Thromb 33: 4-15 (2003)). The parameters of thrombin generation analyzed include: the lag time (time until thrombin generation begins), the peak (the maximal amount of thrombin generated at a given time) and the endogenous thrombin potential (ETP, the total amount of thrombin generated). Similar to the aPTT and PT clotting assays, all of the individual aptamers dose-dependently impacted the various parameters of thrombin generation (FIG. 21 and Table 1). […] 9.3T minorly impacted all parameters of thrombin generation with the high TF reagent; however, because high concentrations of TF may bypass FIX activity by directly generating FXa, the manufacturer recommends low concentrations of TF for analyzing FIX deficient (i.e, Hemophilia B) plasma in the CAT.

Question: With “9.3T: FIXa aptamer, 2'-fluoropyrimidine modified RNA, SEQ ID NO: 1 (AUGGGGACUAUACCGCGUAAUGCUGCCUCCCCAU; 2'-fluoro at CU, RNA at AG, backbone not given here) [Aptamer 9.3T]” as the substance, how does the “fibrin deposition on oxygenator membrane, scanning electron micrographs (in words)” value (“fibrin deposition on oxygenator membrane” below) [1] read?
Answer: obvious fibrin deposition on the membrane

Question: What about the ETP ([2]; RNA 15 nM, TF 1 ρM) of the same substance?
Answer: 1463.50 ± 19.59 nM·min

Question: What about the Lag-time ([2]; RNA 15 nM, TF 1 ρM) of the same substance?
Answer: 3.06 ± 0.15 min

Question: And the Peak ([2]; RNA 15 nM, TF 1 ρM)?
Answer: 195.04 ± 6.91 nM

Question: And the TTP ([2]; RNA 15 nM, TF 1 ρM)?
Answer: 7.34 ± 0.26 min

Question: What about the ETP ([2]; RNA 15 nM, TF 5 ρM) of the same substance?
Answer: 1812.50 ± 81.01 nM·min

Question: And the Lag-time ([2]; RNA 15 nM, TF 5 ρM)?
Answer: 1.72 ± 0.20 min

Question: What about the Peak ([2]; RNA 15 nM, TF 5 ρM) of the same substance?
Answer: 341.90 ± 12.54 nM

Question: And the TTP ([2]; RNA 15 nM, TF 5 ρM)?
Answer: 4.23 ± 0.24 min

Question: And the ETP ([2]; RNA 30 nM, TF 1 ρM)?
Answer: 1350.17 ± 28.02 nM·min

Question: And the Lag-time ([2]; RNA 30 nM, TF 1 ρM)?
Answer: 3.00 ± 0.10 min

Question: What about the Peak ([2]; RNA 30 nM, TF 1 ρM) of the same substance?
Answer: 147.88 ± 4.28 nM

Question: And the TTP ([2]; RNA 30 nM, TF 1 ρM)?
Answer: 8.12 ± 0.34 min

Question: What about the ETP ([2]; RNA 30 nM, TF 5 ρM) of the same substance?
Answer: 1723.67 ± 57.51 nM·min

Question: What about the Lag-time ([2]; RNA 30 nM, TF 5 ρM) of the same substance?
Answer: 1.56 ± 0.20 min

Question: What about the Peak ([2]; RNA 30 nM, TF 5 ρM) of the same substance?
Answer: 316.98 ± 3.28 nM

Question: And the TTP ([2]; RNA 30 nM, TF 5 ρM)?
Answer: 4.28 ± 0.40 min

Question: What about the ETP ([2]; RNA 60 nM, TF 1 ρM) of the same substance?
Answer: 1261.50 ± 64.85 nM·min

Question: And the Lag-time ([2]; RNA 60 nM, TF 1 ρM)?
Answer: 2.89 ± 0.15 min

Question: And the Peak ([2]; RNA 60 nM, TF 1 ρM)?
Answer: 110.65 ± 6.70 nM

Question: What about the TTP ([2]; RNA 60 nM, TF 1 ρM) of the same substance?
Answer: 8.95 ± 0.15 min

Question: What about the ETP ([2]; RNA 60 nM, TF 5 ρM) of the same substance?
Answer: 1741.10 ± 78.84 nM·min

Question: And the Lag-time ([2]; RNA 60 nM, TF 5 ρM)?
Answer: 1.70 ± 0.11 min

Question: And the Peak ([2]; RNA 60 nM, TF 5 ρM)?
Answer: 283.76 ± 3.20 nM

Question: What about the TTP ([2]; RNA 60 nM, TF 5 ρM) of the same substance?
Answer: 4.90 ± 0.31 min

Question: And the ETP ([2]; RNA 120 nM, TF 1 ρM)?
Answer: 1125.00 ± 31.79 nM·min

Question: And the Lag-time ([2]; RNA 120 nM, TF 1 ρM)?
Answer: 2.72 ± 0.05 min

Question: And the Peak ([2]; RNA 120 nM, TF 1 ρM)?
Answer: 86.13 ± 3.02 nM

Question: And the TTP ([2]; RNA 120 nM, TF 1 ρM)?
Answer: 9.34 ± 0.19 min

Question: What about the ETP ([2]; RNA 120 nM, TF 5 ρM) of the same substance?
Answer: 1674.50 ± 56.02 nM·min

Question: And the Lag-time ([2]; RNA 120 nM, TF 5 ρM)?
Answer: 1.60 ± 0.15 min

Question: And the Peak ([2]; RNA 120 nM, TF 5 ρM)?
Answer: 272.90 ± 9.97 nM

Question: And the TTP ([2]; RNA 120 nM, TF 5 ρM)?
Answer: 4.74 ± 0.37 min

Question: “11F7T: FXa aptamer, 2'-fluoropyrimidine modified RNA, SEQ ID NO: 2 (GAGAGCCCCAGCGAGAUAAUACUUGGCCCCGCUCUU; 2'-fluoro at CU, RNA at AG, backbone not given here) [Aptamer 11F7T]” was tested. Which “fibrin deposition on oxygenator membrane” value [1] did it give?
Answer: obvious fibrin deposition on the membrane

Question: What about the ETP ([2]; RNA 125 nM, TF 5 ρM) of the same substance?
Answer: 1612.90 ± 142.40 nM·min

Question: And the Lag-time ([2]; RNA 125 nM, TF 5 ρM)?
Answer: 3.00 ± 0.22 min

Question: And the Peak ([2]; RNA 125 nM, TF 5 ρM)?
Answer: 227.75 ± 43.47 nM

Question: What about the TTP ([2]; RNA 125 nM, TF 5 ρM) of the same substance?
Answer: 7.24 ± 0.77 min

Question: What about the ETP ([2]; RNA 250 nM, TF 5 ρM) of the same substance?
Answer: 1220.50 ± 182.02 nM·min

Question: What about the Lag-time ([2]; RNA 250 nM, TF 5 ρM) of the same substance?
Answer: 4.94 ± 0.38 min

Question: And the Peak ([2]; RNA 250 nM, TF 5 ρM)?
Answer: 120.68 ± 21.79 nM

Question: And the TTP ([2]; RNA 250 nM, TF 5 ρM)?
Answer: 11.70 ± 1.13 min

Question: And the ETP ([2]; RNA 500 nM, TF 5 ρM)?
Answer: 738.60 ± 202.92 nM·min

Question: And the Lag-time ([2]; RNA 500 nM, TF 5 ρM)?
Answer: 7.97 ± 0.93 min

Question: And the Peak ([2]; RNA 500 nM, TF 5 ρM)?
Answer: 65.56 ± 14.57 nM

Question: And the TTP ([2]; RNA 500 nM, TF 5 ρM)?
Answer: 16.47 ± 1.83 min

Question: What about the ETP ([2]; RNA 1,000 nM, TF 5 ρM) of the same substance?
Answer: 459.40 ± 199.39 nM·min

Question: What about the Lag-time ([2]; RNA 1,000 nM, TF 5 ρM) of the same substance?
Answer: 9.50 ± 1.00 min

Question: What about the Peak ([2]; RNA 1,000 nM, TF 5 ρM) of the same substance?
Answer: 36.84 ± 14.42 nM

Question: And the TTP ([2]; RNA 1,000 nM, TF 5 ρM)?
Answer: 20.10 ± 2.96 min

Question: How did the “fibrin deposition on oxygenator membrane” value [1] turn out when “R9D-14T: prothrombin/thrombin aptamer, 58-base truncation of RNA9D-14, SEQ ID NO: 3 (GGCGGTCGATCACACAGTTCAAACGTAATAAGCCAATGTACGAGGCAGACGACTCGCC; 2'-fluoro at CT, RNA at AG, backbone and T or U not given here) [Aptamer R9D-14T]” was run?
Answer: obvious fibrin deposition on the membrane

Question: And the ETP ([2]; RNA 625 nM, TF 5 ρM)?
Answer: 1492.50 ± 54.94 nM·min

Question: What about the Lag-time ([2]; RNA 625 nM, TF 5 ρM) of the same substance?
Answer: 1.55 ± 0.08 min

Question: What about the Peak ([2]; RNA 625 nM, TF 5 ρM) of the same substance?
Answer: 314.82 ± 25.02 nM

Question: And the TTP ([2]; RNA 625 nM, TF 5 ρM)?
Answer: 3.88 ± 0.18 min

Question: What about the ETP ([2]; RNA 1,250 nM, TF 5 ρM) of the same substance?
Answer: 1293.00 ± 67.66 nM·min

Question: What about the Lag-time ([2]; RNA 1,250 nM, TF 5 ρM) of the same substance?
Answer: 1.55 ± 0.08 min

Question: And the Peak ([2]; RNA 1,250 nM, TF 5 ρM)?
Answer: 269.45 ± 13.17 nM

Question: What about the TTP ([2]; RNA 1,250 nM, TF 5 ρM) of the same substance?
Answer: 3.67 ± 0.18 min

Question: What about the ETP ([2]; RNA 2,500 nM, TF 5 ρM) of the same substance?
Answer: 1170.90 ± 90.47 nM·min

Question: And the Lag-time ([2]; RNA 2,500 nM, TF 5 ρM)?
Answer: 4.37 ± 0.71 min

Question: What about the Peak ([2]; RNA 2,500 nM, TF 5 ρM) of the same substance?
Answer: 192.66 ± 31.04 nM

Question: What about the TTP ([2]; RNA 2,500 nM, TF 5 ρM) of the same substance?
Answer: 7.64 ± 1.31 min

Question: And the “thrombin generation (in words)” value ([2]; RNA 5,000 nM (5 μM), TF 5 ρM)?
Answer: completely inhibited thrombin generation; also recorded: no thrombin generation detected
